In US9572862B2, “Methods for promoting lipolysis and oxidation in liver and adipose tissue using catestatin” (The Regents of the University of California, priority 2012, dated 2017):
“Also recorded” adds a separate entry of the source. No end group written: not given here.

Tests used:
phospholipase C (PLC) = conditions: 3T3-L1 adipocytes
Experimental: FIG. 5. Regulation of adrenergic signaling by CST as measured by cAMP production, phospholipase C activity, and lipolytic glycerol release. (A) Effects of CST (100 nM, 10 min) on cAMP production in PC-12 and 3T3-L1 cells pretreated with saline or isoproterenol (ISO) (10 μM) for 10 min. (B) Effects of CST on phospholipase C activity in 3T3-L1 adipocytes pretreated with phenylephrine or epinephrine (10 μM for 10 min). (C) Effects of CST on glycerol release from adipocytes pretreated with ISO, phenylephrine (PEP), and phentolamine (PTA) (10 μM for 10 min).

[1] = test system: adipose tissue explants from Ob/Ob mice; experiment: Lipolysis and fatty acid oxidation in adipose explants of Ob/Ob mice; assay type: cell-based
Experimental: FIG. 8. Lipolysis and fatty acid oxidation in the adipose tissue explants of DIO and Ob/Ob mice after treatment with saline or CST for 16 days. Explants were incubated with saline or leptin (1 μM) for 3 hr and the concentrations of glycerol (A&C) and NEFA (B&D) released into the media from DIO (A&B) and Ob/Ob (C&D) explants were determined as a measure of lipolysis. Homogenates of the explants from DIO (E) and Ob/Ob […] were used to determine their capacity for oxidation of U-^14C-palmitate in response to the treatment with saline, CST, leptin and CST+leptin. The ^14CO2 released was captured and counted as the measure of fatty acid oxidation.
Adipose tissue explants were prepared as described (42). Epididymal fat pads from 12 hr fasted WT, Chga-KO, DIO and Ob/Ob mice with or without CST treatment were collected in Kreb-Ringer-phosphate (KRP) buffer containing 10 mM Hepes and 0.5% BSA. Tissues were minced to 1-2 mm size and treated with 100 nM CST, 1 μM leptin, or saline for 30 min (for signaling analysis) or 3 hr (for lipolysis and β-oxidation assays). Explants were also treated acutely with CST, leptin, a combination, or saline. At the end, incubation media were saved for analysis of glycerol and fatty acid release. Explants were washed prior to homogenization for immunoblotting and analysis of fatty acid oxidation.
Oxidation of radiolabeled palmitate in the homogenates of adipose tissue explants as described previously (45). For oxidation studies of cultured cells, HepG2 (hepatocytes) and 3T3-L1 preadipocytes were obtained from ATCC and cultured following supplier's protocol. Confluent 3T3-L1 cultures were differentiated into adipocytes by treating with a cocktail of dexamethasone (100 nM), IBMX ([…]) and insulin (100 nM) for 10 days. Media were then switched to serum-free DMEM with 1% BSA. Hepatocytes were assayed for lipogenesis and fat oxidation in response to CST treatment. Serum-free cultures were treated with CST (100 nM) for 24 hr followed by a 2 hr incubation with U^14C-palmitate (0.5 μCi/ml). Fatty acid oxidation in cells was determined by modifying a published method (46). Specifically, the culture media in 24-well plates were acidified with 10% HClO4 after incubation with the labeled fatty acid and immediately covered with a thick filter paper sheet (cut to size) soaked in 2 N NaOH and placed underneath the plastic lid. The whole plate was sealed with parafilm. After further incubation for 2 hr, the filter paper sheet was marked as circles around the rim of the wells and then the circles were excised. The filter discs were counted to determine the amount of ^14CO2 absorbed in the papers. Cells in the culture wells were lysed in 1 N NaOH and protein content was assayed using Folin's reagent (BioRad, Hercules, Calif.).

db/db mice = experiment: CST treatment of diabetic db/db mice; assay type: in vivo
Text: FIG. 15. […] Figures in parentheses indicate number of animals.

Chga-KO mice = experiment: Chronic CST administration to Chga-KO mice: adiposity, plasma lipids, leptin; assay type: in vivo
Experimental: FIG. 1. Plasma parameters of wild-type (WT) and Chga-KO mice treated with saline or CST. (A) Plasma CST from saline or CST (5 μg/g BW, i.p./day) treated WT mice (28 week old) on normal chow (NCD) and high fat diet (60% fat for 16 weeks) as well as from Chga-KO mice (28 week old) on NCD. Body weights (B) and epididymal fat pad size normalized to body weight (C) in 28 week old WT and Chga-KO mice treated with saline or CST for 12 days. Plasma triglyceride (TG) (D), glycerol (E), non-esterified fatty acids (NEFA) (F), and leptin (G) in 28 week old WT and Chga-KO mice after treatment with saline or CST for 12 days. (H) Leptin in adipocyte culture media after treatment with saline or CST.
FIG. 2. Comparison of epididyaml fat pads between saline or CST-treated Chga-KO mice. Adipose tissue was compared after 12 days of treatment with saline (A) or CST (5 μg/g BW, i.p./day) (B). *indicates epididymal fat pad.
Adult male (7 month old) WT (31.8±1.2 g) and Chga-KO (39.2±1.5 g) mice in the mixed genetic background (129SvJ×C57BL/6) were studied. Both genotypes were generated from the original founder carrying mixed genotype (50% 129SvJ, 50% C57BL/6) and were maintained by sibling mating. Animals were kept in a 12 hr dark/light cycle and fed standard chow ad libitum. Male C57BL/6 mice, 8 week old, were fed 60% high fat diet (D12492: Research Diets, Inc., New Brunswick) for 16 weeks before using for experiments. Male leptin-deficient (C57BL/6J-Ob/Ob) mice from the Jackson Laboratory were maintained on a standard chow diet. The Institutional Animal Care and Utilization Committee approved all procedures. Chga-KO, DIO and Ob/Ob mice were treated daily with saline or CST (5 μg/g BW, i.p.; 12 days for Chga-KO mice and 16 days for DIO and Ob/Ob mice).
Mice were fasted for 12 hr prior to blood draw. Triglycerides (TG) and non-esterified fatty acids (NEFA) were assayed using kits from Wako Diagnostics (Richmond, Va.). Glycerol was assayed using a kit from Sigma (St Louis, Mo.). Media from the explant cultures and mouse serum were analysed for glycerol and NEFA as a measure of lipolysis. ELISA kits were used to determine plasma levels of leptin, adiponectin (Millipore, Billerica, Mass.) and CST (Bachem, Torrance, Calif.). For CST assay, plasma samples and reference standards were passed through mini C18 columns and the flow-through fractions were assayed. The same kits were used for measurements in culture media.

[2] = CST 5 μg/g BW i.p./day for 12 days

SSMKLSFRARAYGFRGPGPQL [CST]
PLC activity, substance by itself (phospholipase C (PLC)): mildly stimulates PLC | PLC activation by epinephrine (phospholipase C (PLC); epinephrine 10 μM 10 min): attenuated | PLC activation by phenylephrine (phospholipase C (PLC); phenylephrine 10 μM 10 min): attenuated | palmitate oxidation [1]: not CST alone | lipolysis (glycerol and NEFA release) ([1]; CST in vivo 16 days, leptin 1 μM ex vivo 3 hr): did not influence lipolysis | glucose tolerance (GTT) (db/db mice; CST 10 μg/g/day for 14 days): improvement in glucose tolerance; also recorded: improved glucose tolerance | C-peptide level (db/db mice; CST 14 days): without lowering C-peptide levels; also recorded: No change in C-Peptide level | C-peptide/Insulin molar ratio (db/db mice; CST 14 days): increased; also recorded: higher C-Peptide/insulin molar ratio | plasma insulin level (db/db mice; CST 14 days (untreated db/db 20-30 nM)): 14 to 18 nM | food intake (Chga-KO mice): did not increase food intake | body weight (Chga-KO mice; [2]): without affecting body weight | epididymal fat pad size (Chga-KO mice; [2]): reduced epididymal fat pad size to WT level | plasma NEFA level (Chga-KO mice; CST 12 days): increased | plasma TG levels (Chga-KO mice; CST 12 days): decreased plasma TG levels | plasma glycerol level (Chga-KO mice; CST 12 days): increased | plasma leptin (Chga-KO mice; CST 12 days): lowered plasma leptin to a level below WT
